Measured values reported in PMC10892041, “Vanadium Complexes with Thioanilide Derivatives of Amino Acids: Inhibition of Human Phosphatases and Specificity in Various Cell Models of Metabolic Disturbances” (Pharmaceuticals, 2024).

Key:
Format in all cases: biochemical
PTP1B = target: T1, PTP1B (Homo sapiens, UniProt P18031); assay: Inhibition of human recombinant tyrosine phosphatase PTP1B (DiFMUP fluorescence); conditions: for Inhibition of PTP1B, percentage of inhibition of the control: 1 µM, control solvent only, SD did not exceed 6%; for Log IC50 ± SD PTP1B: logarithm of IC50; for IC50: read-out: IC50 PTP1B
T1 construct: purchased Sigma-Aldrich
T1 sequence (P18031 1-435): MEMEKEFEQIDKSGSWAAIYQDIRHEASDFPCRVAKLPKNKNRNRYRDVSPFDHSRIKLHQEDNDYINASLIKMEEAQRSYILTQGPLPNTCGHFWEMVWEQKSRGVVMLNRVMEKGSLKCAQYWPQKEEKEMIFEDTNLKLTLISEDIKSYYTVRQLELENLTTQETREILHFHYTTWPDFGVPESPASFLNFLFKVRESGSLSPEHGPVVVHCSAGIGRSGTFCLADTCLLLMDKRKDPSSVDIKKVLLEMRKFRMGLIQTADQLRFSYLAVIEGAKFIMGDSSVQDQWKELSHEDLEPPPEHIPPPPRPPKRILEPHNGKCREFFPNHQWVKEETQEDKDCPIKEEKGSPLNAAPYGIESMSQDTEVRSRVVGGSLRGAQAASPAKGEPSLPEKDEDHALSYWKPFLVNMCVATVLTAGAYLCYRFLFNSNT
How it was run: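 Human recombinant PTP1B (final 50 ng/mL) in buffer of 25 mM MOPS, 50 mM NaCl, 1 mM DTT and 0.05% Tween-20 (pH 7.0) was dispensed onto test compound in black 384-well plates. After 10 min, DiFMUP was added to 0.1 mM. Plates were incubated 20 min at 23 °C and fluorescence read (ex 355, em 560 nm). Assays were run in triplicate, with inhibition relative to enzyme-plus-vehicle control and IC50 fitted in GraphPad Prism.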

SHP1 = target: T2, SHP1 (Homo sapiens, UniProt P29350); assay: Inhibition of human recombinant tyrosine phosphatase SHP1 (DiFMUP fluorescence); conditions: for Inhibition of SHP1, percentage of inhibition of the control: 1 µM, control solvent only, SD did not exceed 6%; for Log IC50 ± SD SHP1: logarithm of IC50
T2 construct: purchased Sigma-Aldrich
How it was run: (§1)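 Human recombinant phosphatases (SHP1 400 ng/mL, SHP2 50 ng/mL, LAR 5 ng/mL final) were pre-incubated 10 min with compound in 25 mM MOPS pH 7.0, 50 mM NaCl, 1 mM DTT, 0.05% Tween-20. DiFMUP (0.1 mM final) was added for 20 min at 23 °C and fluorescence read at 355/560 nm. Screening used 1 µM compound (% inhibition vs vehicle); IC50 also reported.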

LAR = target: T3, LAR (Homo sapiens, UniProt P10586); assay: Inhibition of human recombinant tyrosine phosphatase LAR (DiFMUP fluorescence); conditions: for Inhibition of LAR, percentage of inhibition of the control: 1 µM, control solvent only, SD did not exceed 6%
T3 sequence (P10586 1352-1607 limits assumed): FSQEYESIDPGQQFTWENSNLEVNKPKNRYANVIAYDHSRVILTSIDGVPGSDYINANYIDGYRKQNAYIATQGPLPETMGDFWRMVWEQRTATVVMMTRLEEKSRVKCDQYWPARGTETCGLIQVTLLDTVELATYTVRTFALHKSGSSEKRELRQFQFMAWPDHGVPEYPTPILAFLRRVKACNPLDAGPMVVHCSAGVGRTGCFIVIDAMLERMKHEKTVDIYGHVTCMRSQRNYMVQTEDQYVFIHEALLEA
How it was run: as §1

PP2A = PP2A (Homo sapiens, UniProt P67775); assay: Inhibition of human recombinant non-tyrosine phosphatase PP2A (DiFMUP)
How it was run: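 Compound pre-incubated 10 min with enzyme: PP2A at 0.5 U/mL in 50 mM Tris-HCl pH 7.0, 0.05% Tween-20, 125 µg/mL BSA with 0.1 mM DiFMUP; CDC25A at 400 ng/mL with 0.2 mM 3-O-methylfluorescein phosphate. Incubation 180 min at 23 °C; fluorescence (ex 355/em 560 nm) read, percent inhibition versus vehicle control, triplicate.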

SHP2 = target: T4, SHP2 (Homo sapiens, UniProt Q06124); assay: Inhibition of human recombinant tyrosine phosphatase SHP2 (DiFMUP fluorescence); conditions: for Inhibition of SHP2, percentage of inhibition of the control: 1 µM, control solvent only, SD did not exceed 6%
T4 construct: purchased Sigma-Aldrich
T4 sequence (Q06124 1-593): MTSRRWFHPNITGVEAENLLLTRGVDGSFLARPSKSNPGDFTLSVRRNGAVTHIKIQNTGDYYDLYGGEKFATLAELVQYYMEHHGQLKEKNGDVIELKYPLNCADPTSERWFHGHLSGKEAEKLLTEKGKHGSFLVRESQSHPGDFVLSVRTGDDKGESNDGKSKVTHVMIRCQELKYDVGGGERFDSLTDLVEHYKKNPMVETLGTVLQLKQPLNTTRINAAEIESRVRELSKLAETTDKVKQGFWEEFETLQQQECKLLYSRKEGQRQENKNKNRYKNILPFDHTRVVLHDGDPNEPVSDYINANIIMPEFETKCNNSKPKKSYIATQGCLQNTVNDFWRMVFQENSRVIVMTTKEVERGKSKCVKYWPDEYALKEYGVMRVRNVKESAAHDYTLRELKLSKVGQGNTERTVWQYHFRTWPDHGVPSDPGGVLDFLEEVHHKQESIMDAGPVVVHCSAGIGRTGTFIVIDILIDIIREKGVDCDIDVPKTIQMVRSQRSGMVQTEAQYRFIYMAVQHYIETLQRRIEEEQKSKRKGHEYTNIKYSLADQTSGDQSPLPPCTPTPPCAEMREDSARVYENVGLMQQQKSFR
How it was run: as §1

T2 sequence (P29350 whole entry): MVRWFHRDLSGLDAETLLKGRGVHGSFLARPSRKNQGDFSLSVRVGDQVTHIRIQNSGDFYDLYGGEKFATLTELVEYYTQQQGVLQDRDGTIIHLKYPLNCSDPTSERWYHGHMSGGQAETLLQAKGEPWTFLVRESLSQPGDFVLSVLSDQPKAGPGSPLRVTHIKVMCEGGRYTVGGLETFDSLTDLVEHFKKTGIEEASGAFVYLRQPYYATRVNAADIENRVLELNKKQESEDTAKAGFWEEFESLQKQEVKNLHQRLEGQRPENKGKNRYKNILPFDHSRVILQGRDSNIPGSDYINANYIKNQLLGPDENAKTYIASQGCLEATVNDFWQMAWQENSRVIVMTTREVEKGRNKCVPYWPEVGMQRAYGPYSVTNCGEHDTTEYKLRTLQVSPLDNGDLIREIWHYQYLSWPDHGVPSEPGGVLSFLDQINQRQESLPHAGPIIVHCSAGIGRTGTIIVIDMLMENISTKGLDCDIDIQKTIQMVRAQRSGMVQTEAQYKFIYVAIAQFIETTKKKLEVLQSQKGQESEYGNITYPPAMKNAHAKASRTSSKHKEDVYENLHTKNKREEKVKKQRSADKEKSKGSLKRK
PP2A, sequence (P67775 whole entry): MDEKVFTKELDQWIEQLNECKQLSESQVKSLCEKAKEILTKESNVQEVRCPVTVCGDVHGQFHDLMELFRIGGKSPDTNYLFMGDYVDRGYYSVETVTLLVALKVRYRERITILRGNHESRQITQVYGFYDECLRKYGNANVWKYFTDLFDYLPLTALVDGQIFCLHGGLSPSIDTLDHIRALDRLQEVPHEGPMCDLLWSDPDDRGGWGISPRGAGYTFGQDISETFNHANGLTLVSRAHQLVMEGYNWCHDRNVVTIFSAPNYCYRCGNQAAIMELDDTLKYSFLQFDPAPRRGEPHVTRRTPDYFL

SMILES: Cc1occc(=O)c1[O-].Cc1occc(=O)c1[O-].[O]=[V+2] [BMOV, bis(maltolato)oxidovanadium(IV), reference compound]
- Inhibition of PTP1B, percentage of inhibition of the control (PTP1B): 77%
- Log IC50 ± SD PTP1B (PTP1B): −6.83 ± 0.02
- IC50 (PTP1B): 149 nM
- IC50 (SHP1): 14 nM
- Inhibition of SHP1, percentage of inhibition of the control (SHP1): 76%
- Log IC50 ± SD SHP1 (SHP1): −7.86 ± 0.03
- IC50 (LAR): 140 nM
- Inhibition of LAR, percentage of inhibition of the control (LAR): 58%
- Inhibition of PP2A, percentage inhibition of control ± SD (PP2A; 1 µM): 52 ± 15%
- Inhibition of PP2A, percentage inhibition of control ± SD (PP2A; 10 µM): 63 ± 4%
- IC50 (SHP2): 8 nM
- Inhibition of SHP2, percentage of inhibition of the control (SHP2): 82%

SMILES: O=S(=O)([O-])[O-].[O]=[V+2] [VOSO4, reference compound]
- Inhibition of PTP1B, percentage of inhibition of the control (PTP1B): 62%
- Log IC50 ± SD PTP1B (PTP1B): −7.00 ± 0.07
- IC50 (PTP1B): 99 nM
- IC50 (SHP1): 17 nM
- Inhibition of SHP1, percentage of inhibition of the control (SHP1): 70%
- Log IC50 ± SD SHP1 (SHP1): −7.77 ± 0.02
- IC50 (LAR): 95 nM
- Inhibition of LAR, percentage of inhibition of the control (LAR): 44%
- Inhibition of PP2A, percentage inhibition of control ± SD (PP2A; 1 µM): 32 ± 2%
- Inhibition of PP2A, percentage inhibition of control ± SD (PP2A; 10 µM): 40 ± 3%
- IC50 (SHP2): 13 nM
- Inhibition of SHP2, percentage of inhibition of the control (SHP2): 77%
